This note sets out measurements from article PMC9351465, “Mechanism-based heparanase inhibitors reduce cancer metastasis in vivo” (Proceedings of the National Academy of Sciences of the …, 2022).

“And” between values parts separate entries of the source, which are not always exact repeats. Equal values may be shown once.

In one experiment the test system is CAG myeloma cancer cells. Kind of experiment: CAG myeloma xenograft bone metastasis model (luciferase imaging). It is filed as in vivo, mouse. Conditions: NOD/SCID mice. The text has this:
Finally, we examined a CAG myeloma xenograft model, which faithfully recapitulates the invasion of multiple myeloma to the bone marrow. We compared the efficacy of 2 to bortezomib, a proteasome inhibitor and standard treatment for multiple myeloma and lymphomas, and also explored the possibility of synergistic proteasomal and HPSE inhibitor treatment. In contrast to the single initial dose regimens used for B16 and 4T1, a continuous dosing regimen was used in this assay to gauge the efficacy of 2 over longer treatment periods. Following injection of luciferase expressing CAG cells, mice were treated with a course of 2 (300 nmol/day i.p.), bortezomib (0.5 mg/kg twice weekly i.p.), or a combination of both compounds. […]
Mice were sacrificed after 14 days and the lungs were dissected, photographed and evaluated for the number of metastatic foci/lung. […]
Bioluminescence imaging of lung metastases produced by luciferase-expressing 4T1 cells was carried out using a highly sensitive, cooled charge-coupled device camera assembled in a specimen box (IVIS; Xenogen Corp, Hopkinton, MA). […] The tumor burden was quantified using Living Image software (Xenogen) (12, 13). […]
CAG myeloma - Luciferase-labeled CAG human myeloma cells (3x106) were injected into the tail vein of NOD/SCID mice. […] Tumor burden was quantified using Living Image software. […]

The next experiment deals with T1, HPSE (Homo sapiens, UniProt Q9Y251).
T1 sequence (Q9Y251 158-543 limits assumed): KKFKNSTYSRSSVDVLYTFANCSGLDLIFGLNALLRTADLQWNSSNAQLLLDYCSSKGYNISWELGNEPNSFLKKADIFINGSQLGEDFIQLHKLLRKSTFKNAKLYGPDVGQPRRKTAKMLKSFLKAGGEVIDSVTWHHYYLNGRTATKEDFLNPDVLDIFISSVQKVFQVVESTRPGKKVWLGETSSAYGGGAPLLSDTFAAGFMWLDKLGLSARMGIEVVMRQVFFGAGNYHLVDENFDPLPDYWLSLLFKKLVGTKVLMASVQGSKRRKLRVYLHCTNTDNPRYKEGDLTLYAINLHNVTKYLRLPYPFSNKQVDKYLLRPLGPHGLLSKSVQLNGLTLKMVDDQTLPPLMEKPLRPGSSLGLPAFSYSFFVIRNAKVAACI
T1 sequence (Q9Y251 36-109 limits assumed): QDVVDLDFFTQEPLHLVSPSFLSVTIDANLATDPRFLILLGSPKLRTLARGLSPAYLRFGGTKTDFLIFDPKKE
As to the kind of experiment: colorimetric fondaparinux cleavage assay. It is filed as biochemical. Conditions: 200 ng/mL HPSE, 100 µM fondaparinux, pH 5.0, 37°C, 18 h, n = 2; read-out: IC50, HPSE-mediated fondaparinux cleavage. How it is done: We next investigated the ability of our inhibitors to abrogate HPSE processing of its native oligosaccharide substrates, using a colorimetric assay that detects cleavage of the synthetic HS pentasaccharide fondaparinux ([49]). […]
Fondaparinux cleavage was performed essentially as previously described (9). Briefly, assays were carried out in 96 well plates (Nunc) pretreated with 4% BSA in TBS-T (20 mM Tris pH 7.4, […]
100 µL reactions were set up in 40 mM NaOAc pH 5.0 buffer, containing final concentrations of 200 ng/mL HPSE, 100 µM Fondaparinux (Arixtra) and specified concentrations of inhibitors.
Reactions were incubated at 37°C for 18 h, then quenched with 100 µL 0.1 M NaOH supplemented with 1.7 mM WST-1 tetrazolium salt, and incubated at 60°C for 1 h. Absorbance at 584 nm was read using an ELISA plate reader (BIO-TEK Instruments). All reactions were carried out in technical duplicate. Data were plotted and analyzed using Sigmaplot (Systat). […]

Regarding `CC(=O)N[C@H]1[C@@H](O[C@H]2[C@H](O)[C@@H](O)[C@@H]3O[C@@H]3[C@@H]2C(=O)O)O[C@H](CO)[C@@H](O)[C@@H]1O` [compound 2], the “metastatic burden (bioluminescent flux)” value with CAG myeloma cancer cells (2 300 nmol/day i.p., bortezomib 0.5 mg/kg twice weekly i.p., imaging over time) is listed as “moderate reduction in metastatic burden”. In addition, in the experiment with CAG myeloma cancer cells (continuous dosing, 33 d), the “antimetastatic efficacy at 33 d timepoint” value is “somewhat reduced efficacy following prolonged treatment”. Also, the IC50 (usually the concentration that gives 50% inhibition) at HPSE is 460 nM and ~460 nM.
